The results in this text go back to patent publication EP0390602A1, “Neurotrophic peptides” (SUMITOMO PHARMACEUTICALS COMPANY, LIMITED, priority 1989, dated 1990).

The assay concerns culture of rat medial septum nucleous. In words: Enhancing effect on acetylcholine synthesis in culture of rat medial septum nucleus (method of Ojika et al.). It counts as cell-based. To be noted: for Ash synthesis (%): Table 4, Concentration 1 x 10⁻⁸, control value as 100%, several single values per cell. The protocol:
The neurotrophic peptide and its derivative of the present invention can regulate differentiation and maturation of neuronal cells. That is, the neurotrophic peptide and its derivative accelerate the acetylcholine synthesis in the tissue of medial septum nucleous which is rich in cholinergic neuron. The biological activity can be determined by the method of Ojika, K., et al. [Ojika, K., et al., Japanese Journal of Psycopharmacology, 7, 447-451, (1987)].
The peptides were assayed for a biological activity in accordance with the method of Ojika et al. [Japanese Journal of Psycopharmacology, 7, 447-451 (1987)]. Namely, medial septum nucleous removed from rat embryonal brain (16 day embryo) is cut to small pieces, then the pieces were cultured in the Bottenstein's modified N₂ medium containing 1% FCS of saturation concentration, in Falcon's 35 mm plastic culture dish with 7% CO₂ mixed air, at 36°C. The neurotrophic peptide or its derivative was added to the cultures at initial day. In a control group, no peptide is added. The neurotrophic peptide may be added to the culture at 3 days after the initial day. After 6 days culture, an acetylcholine synthesis activity of cultured tissue was assayed to determine the biological activity of the peptide. The acetylcholine synthesis activity was assayed as follows.
A cultured tissue was pre-incubated in high potasium Tyrode solution buffered with tris-HCl (pH 7.4) containing 98 mM of Nacl and 55 mM of Kcl , then incubated in a buffered solution containing 100 nM [³H] choline chloride (15 Ci/mmol) at 37°C for 30 minutes. After washing out of free [³H] choline, the tissue was dissolved in 1 N formic acid/acetone (15 : 85) solution. Free [³H] choline was converted to phosphocholine by choline kinase (0.1 unit/ml) and [³H] acetylcholine was extracted with tetraphenyl boron (5 mg/ml acetonitrile) to determine the acetylcholine synthesis activity. The activity of cultured tissue for synthesis of acetylcholine was defined as an amount of synthesized acetylcholine per piece of cultured tissue.

Where “and” joins values, the source holds several entries; their conditions need not be identical. Equal entries are not always repeated. Where no end group is shown, it is not given here.

Consider “ISQWAGPL [HCNP(4-11)OH, Ile-Ser-Gln-Trp-Ala-Gly-Pro-Leu]”, for which the “Ash synthesis (%)” value is 160% and 139%.

Consider “H-AADISQWAGPL-OH [f-HCNP, H-Ala-Ala-Asp-Ile-Ser-Gln-Trp-Ala-Gly-Pro-Leu-OH]”, for which the Ach synthesis activity (Table 3, 2.5 pg/ml, 6 days culture, average value in triplet assay, Control 7.1 ± 1.1) was 11.3 ± 0.8 fmol/specimen. Moreover, the “acetylcholine synthesis activity as compared with control culture” value (concentration of 2.5 pg/ml) was 159%.

With Ac-AADISQWAG-NH2 [Ac-HCNP(1-9)NH₂], the “Ash synthesis (%)” value is 227% and 216%.

As for DISQWAG-NH2 [HCNP(3-9)NH₂], the “Ash synthesis (%)” value was 224% and 138%.
